Measurements published in PMC11206695, “Chemical Behavior and Bioactive Properties of Spinorphin Conjugated to 5,5′-Dimethyl- and 5,5′-Diphenylhydantoin Analogs” (Pharmaceuticals, 2024).
Marks after values point to notes of the source that are not given here.

Assays:
[1] = test system: psychomotor seizures (6-Hz test) in mice; experiment: 6-Hz test; format: in vivo; conditions: i.c.v.; for No. of Animals Protected/No. of Animals Tested: 10 min after infusion
Protocol: (§1) The spinorphin peptide analogues (S, Dm-S, Dm-S5, and Dm-S6 or PhS, PhS5, and PhS6) were administered intracerebroventricularly (i.c.v.) (10 μL/ventricle) at doses of 0.6, 1.2, and 2.4 μg, respectively, using a 28-gauge stainless-steel needle attached to a 50-μL Hamilton® syringe as previously described. The matched group (control) was treated with a vehicle. The seizure test was performed 10 min after the i.c.v. infusion.
6-Hz test. Psychomotor seizures were induced by corneal electrodes (constant current shock generator, 32 mA, 6 Hz, 3 s) as previously described. The return to a normal position, 10 s after stimulation, was used as a criterion for protection against psychomotor seizures.

Escherichia coli = experiment: Antibacterial disc diffusion; format: cell-based; conditions: 20 µL of 50 mg/mL on 6 mm disc, 24 h, 37 °C
Protocol: Antibacterial activity is carried out with reference to the slightly modified method of Murray et al.. The bacteria used were Staphylococcus aureus, Escherichia coli, and Bacillus cereus. To test the antibacterial activity of 6 peptides, it is carried out as follows: taking 100 μL of spectrum bacteria ([…] bacteria) spread on the nutrient agar medium (NA). Furthermore, a paper disc (6 mm in diameter) was placed and then 20 μL of extract with a concentration of 50 mg/mL was dripped onto it. As a positive control, we used […] of chloramphenicol on the paper disc. DMSO 10% is used as a negative control according to peptide solvents. The treatment was repeated three times and then incubated for 24 h at a temperature of 37 °C. After that, an inhibitory power test measurement was carried out by measuring the diameter of the clear zone formed.

[2] = test system: ivPTZ-induced myoclonic, clonic and tonic seizures in mice; experiment: Intravenous pentylenetetrazole seizure (ivPTZ) test; format: in vivo; conditions: i.c.v., doses of 0.62 µg and 1.25 µg, vs. vehicle-infused control (p < 0.05; p < 0.01)
Protocol: as §1
Intravenous Pentylenetetrazole Seizure (ivPTZ) Test The convulsant pentylenetetrazole (PTZ) (1%), dissolved in saline, was infused (0.005 mL/s) into a tail vein as previously performed. The activity to raise the threshold of ivPTZ-induced myoclonic, clonic, and tonic seizures and concentrations, quantity of infusion (mL), and mouse body weight were recorded.

[3] = Potentiometric titration for pK and pI; format: physicochemical; conditions: 12 µmol peptide, room temperature
Protocol: Potentiometric titrations were performed to determine acid–base constants at room temperature using a potentiometric cell with a combined glass electrode and OMINS titration system (Metrohm). An OMNIS Digital Burette with an accuracy of ±0.01 mL was used to precisely add the titrant portions to the titrated aliquot (12 µmol) of the stock solution of the peptide compounds. The potentiometric titration results were processed mathematically to construct the titration curves and calculate the acid–base constants according to […] [16]. Isoelectric points correspond to pH points where the analyte and titrant interact in equimolar amounts (pH at the equivalence point).

[4] = test system: generalized seizures (MES test) in mice; experiment: Maximal electroshock (MES) test; format: in vivo; conditions: i.c.v.
Protocol: as §1
The generalized seizures were induced through a stronger stimulus of 50 mA, 60 Hz, 0.2 s, applied via the same corneal electrodes, in each mouse tested. The suppression of tonic hind limb extension, replaced by a clonic seizure, was accepted as a valid criterion for the anticonvulsant potency of the drug.

[5] = isoelectric point = pH at equivalence point, potentiometric titration
[6] = potentiometric titration with NaOH, aqueous

Substance: H-LVVYPWT-NH2 [S, H-Leu-Val-Val-Tyr-Pro-Trp-Thr-NH2]
- % Protection ([1]; dose 0.62 µg/10 µL): 50%
- No. of Animals Protected/No. of Animals Tested ([1]; dose 0.62 µg/10 µL): 3/6
- % Protection ([1]; dose 1.25 µg/10 µL): 50%
- No. of Animals Protected/No. of Animals Tested ([1]; dose 1.25 µg/10 µL): 3/6
- % Protection ([1]; dose 2.5 µg/10 µL): 67% *
- No. of Animals Protected/No. of Animals Tested ([1]; dose 2.5 µg/10 µL): 4/6
- Antibacterial activity against E. coli (inhibitory zone, in words) (Escherichia coli): outperformed peptide analogues
- Activity against myoclonic twitching, clonic seizures and forelimb tonic seizures (ivPTZ) [2]: anticonvulsant activity
- pI1 [3, 5]: 4.91
- pI2 [3, 5]: 8.31
- pKa1 [3, 6]: 3.15
- pKa2 [3, 6]: 6.78
- % Mortality ([4]; MES test, dose 0.62 µg/10 µL): 0%
- % Mortality ([4]; MES test, dose 1.25 µg/10 µL): 30%
- % Mortality ([4]; MES test, dose 2.5 µg/10 µL): 50%
- % Protection ([4]; MES test, dose 2.5 µg/10 µL): 50%
- No. of Animals Protected/No. of Animals Tested ([4]; MES test, dose 2.5 µg/10 µL, 10 min after infusion): 3/6
- Activity in the MES test (in words) ([4]; text summary of Tables 4 and 5): inactive
